One molecule from patent EP4050002A1, “ANTI-PROLIFERATIVE AGENTS” (First Health Pharmaceuticals B.V., priority 2021, dated 2022) can be followed below.

pIC50: −log10 of the molar value. A value given as a limit tells only on which side of the number the result lay.

One data set can be described thus: Plasma stability. Format: in vitro ADME, CD1 mice. The settings on record: Mouse plasma. On the procedure: Plasma previously separated from whole blood in EDTA-treated tubes and frozen; blood samples obtained from healthy volunteers, Sprague Dawley rats and CD1 mice, was thawed at room temperature and centrifuged at 1400x RCF 4°C, for 15 minutes. Approximately 90% of the clear supernatant fraction was transferred to a separate tube and was used for the assay.
Stocks (1 mM and 25 µM) of test compound were prepared in acetonitrile:water (50:50 v/v). Plasma samples were heat inactivated at 54°C. 3 µl of 25 µM test compound were added to 72 µl of heat inactivated plasma. A 50 µL aliquot of the mixture was taken and crashed with 200 µl of acetonitrile containing Telmisartan 100 ng/ml as internal standard and was further processed along with other time points: 10, 30 60 and 120 minutes.
Final working stock of 1 µM was prepared by diluting 12 µl of 25 µM stock in 288 µl of plasma. The obtained solution (300 µl) of plasma containing the test compound was incubated for […] at 37°C in shaker water bath with gentle shaking. 50 µl aliquot of sample at 10, 30, 60 and 120 min was precipitated immediately with 200 µl of acetonitrile containing internal standard and centrifuged at 4000x RCF, 4°C for 20 minutes. 150 µl of supernatant was diluted with 150 µl of water and analyzed by LC-MS/MS.
The % remaining of the test substance was calculated as: (Peak Area ratio at time (min))/(Peak Area Ratio at 0 min) ^∗ 100
The API400 MS and Agilent 1260 Infinity LC were used. Mobile Phase included 10mM Ammonium acetate with 0.1% formic acid in MilliQ water, and Methanol. The column was Phenomenex, KINETIC EVO C18 100A 5u 50^∗4.6 mm, 10 µl injection volume.

The target of the next data set is T1, CYP2B6 (Homo sapiens, UniProt P20813).
T1 construct: 158 µl of Human Liver Microsome working stock solution; from tissue; host or cells: human liver microsomes
The data set can be described thus: Cytochrome P450 inhibition. It counts as in vitro ADME. As to conditions: 2B6, Human Liver Microsome. The procedure: (§1) Ready to use PBS, 9.07-10.00 g, (Sigma Aldrich, catalogue code P3813) was dissolved in […] MilliQ water and pH was adjusted to 7.4.
(§2) Substrate pool was done pooling 14 µl of Phenacitin 10 mM (CYP1A2 substrate, Sigma Aldrich, catalogue number 7740), 14 µl Diclofenac 10 mM (CYP2C9 substrate, Sigma Aldrich, catalogue number D6899), 14 µl Dextromethorphan 10 mM (CYP2D6 substrate, Sigma Aldrich, catalogue number D9684), 20.28 µl Midazolam 2.76 mM (CYP3A4 substrate, Sigma Aldrich, catalogue number UC430) and 14 µl Bupropion HCl 10 mM (CYP2B6 substrate, Sigma Aldrich, catalogue number B102), and diluted to 2800 µl with PBS buffer pH 7.4.
(§3) Inhibitors of the cytochromes tested were the following: Alpha-naphthoflavone (CYP1A2, Sigma Aldrich, catalogue number N5757); Sulfaphenazole (CYP2C9, Sigma Aldrich, catalogue number S0758); Ticlopidine (CYP2B6, Sigma Aldrich, catalogue number T6654); Quinidine (CYP2D6, Sigma Aldrich, catalogue number Q3625); Ketoconazole (CYP3A4, Sigma Aldrich, catalogue number K1003).
(§4) 158 µl of Human Liver Microsome working stock solution in PBS buffer pH7.4 was added to reaction plate (0.253 mg/ml, 158 µl/well).
(§5) Test compounds and inhibitors were prepared in DMSO and diluted with buffer to prepare working solution with the final concentration of 3000, 999, 333, 111, 37 and 12 µM. 2 µl of working solution of the test compounds or inhibitors listed above were added to reaction plate (2 µl/ well). For control, 2 µl of Acetonitrile containing DMSO (without inhibitor) was added to reaction plate. 20 µl of substrate pool was added to all the wells of the reaction plate. The samples were mixed using the vortex and pre-incubated at 37°C for 5 min.
(§6) The NADPH solution 10 mM in PBS buffer pH 7.4 was pre-warmed at 37°C for 5 min. 20 µl of pre-warmed NADPH solution was added to the reaction plate and then incubated at 37°C for 10 min.
(§7) The reaction was terminated by adding cold ACN (200 µl/well) to the reaction mixture and centrifuged at 4,000 rpm for 20 minutes.
(§8) After centrifugation, 200 µl of supernatant was submitted for LC-MS/MS analysis. Mobile phases include 0.1% formic acid in water and methanol:acetonitrile, 50% (v/v).
(§9) Column is Phenomenex kinetic C18, 50 x 4.6 mm, […]. IC50 values were calculated using Graphpad Prism (version 4.03).
(In general: Liver microsomes are vesicles of endoplasmic reticulum, rich in cytochrome P450 enzymes.)

In the next data set the target is T2, CYP2C9 (Homo sapiens, UniProt P11712).
T2 construct: 158 µl of Human Liver Microsome working stock solution; from tissue; host or cells: human liver microsomes
The data set can be described thus: Cytochrome P450 inhibition. It counts as in vitro ADME. As to conditions: 2C9, Human Liver Microsome. On the procedure: as §1, §2, §3, §4, §5, §6, §7, §8, §9

The target of another data set is T3, CYP1A2 (Homo sapiens, UniProt P05177).
T3 construct: 158 µl of Human Liver Microsome working stock solution; from tissue; host or cells: human liver microsomes
Nature of the data set: Cytochrome P450 inhibition. It counts as in vitro ADME. As to conditions: 1A2, Human Liver Microsome. The procedure: as §1, §2, §3, §4, §5, §6, §7, §8, §9

In a further data set the target is T4, CYP2D6 (Homo sapiens, UniProt P10635).
T4 construct: 158 µl of Human Liver Microsome working stock solution; from tissue; host or cells: human liver microsomes
Nature of the data set: Cytochrome P450 inhibition. It counts as in vitro ADME. The settings on record: 2D6, Human Liver Microsome. On the procedure:
as §1, §2, §3, §4, §5, §6, §7, §8, §9

In another data set the target is T5, CYP3A4 (Homo sapiens, UniProt P08684).
T5 construct: 158 µl of Human Liver Microsome working stock solution; from tissue; host or cells: human liver microsomes
The data set can be described thus: Cytochrome P450 inhibition. Format: in vitro ADME. The settings on record: 3A4, Human Liver Microsome. On the procedure:
as §1, §2, §3, §4, §5, §6, §7, §8, §9

Data set [1] can be described thus: Tissue distribution after single I.P. administration. It counts as in vivo, male Swiss Albino Mice.

T3 sequence (P05177 whole entry): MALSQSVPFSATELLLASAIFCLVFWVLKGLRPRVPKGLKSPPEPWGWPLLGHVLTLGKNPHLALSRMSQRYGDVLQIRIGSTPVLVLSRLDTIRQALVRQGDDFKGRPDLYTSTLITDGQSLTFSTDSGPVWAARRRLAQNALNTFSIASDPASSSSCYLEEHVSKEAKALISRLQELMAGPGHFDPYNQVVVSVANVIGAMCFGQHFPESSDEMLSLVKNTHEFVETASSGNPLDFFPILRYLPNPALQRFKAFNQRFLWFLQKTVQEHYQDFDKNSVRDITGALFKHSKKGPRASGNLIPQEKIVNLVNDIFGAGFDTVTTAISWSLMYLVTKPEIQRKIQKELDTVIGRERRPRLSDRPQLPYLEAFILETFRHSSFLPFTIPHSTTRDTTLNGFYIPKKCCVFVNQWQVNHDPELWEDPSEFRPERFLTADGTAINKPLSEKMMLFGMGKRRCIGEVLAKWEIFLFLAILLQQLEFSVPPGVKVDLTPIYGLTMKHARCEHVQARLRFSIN
T4 sequence (P10635 whole entry): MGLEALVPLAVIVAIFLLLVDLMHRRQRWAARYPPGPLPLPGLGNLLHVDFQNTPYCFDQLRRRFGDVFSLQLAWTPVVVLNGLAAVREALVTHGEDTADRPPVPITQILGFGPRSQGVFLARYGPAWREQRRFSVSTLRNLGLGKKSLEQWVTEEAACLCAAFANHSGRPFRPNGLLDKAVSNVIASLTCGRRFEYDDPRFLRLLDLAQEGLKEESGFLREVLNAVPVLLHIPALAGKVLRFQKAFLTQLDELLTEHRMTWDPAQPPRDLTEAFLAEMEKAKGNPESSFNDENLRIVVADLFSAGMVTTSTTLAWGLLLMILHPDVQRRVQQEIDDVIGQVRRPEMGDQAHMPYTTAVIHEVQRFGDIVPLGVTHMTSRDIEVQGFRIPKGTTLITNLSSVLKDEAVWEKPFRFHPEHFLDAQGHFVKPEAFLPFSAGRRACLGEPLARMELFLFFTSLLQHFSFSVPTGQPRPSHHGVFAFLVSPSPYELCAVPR
T2 sequence (P11712 whole entry): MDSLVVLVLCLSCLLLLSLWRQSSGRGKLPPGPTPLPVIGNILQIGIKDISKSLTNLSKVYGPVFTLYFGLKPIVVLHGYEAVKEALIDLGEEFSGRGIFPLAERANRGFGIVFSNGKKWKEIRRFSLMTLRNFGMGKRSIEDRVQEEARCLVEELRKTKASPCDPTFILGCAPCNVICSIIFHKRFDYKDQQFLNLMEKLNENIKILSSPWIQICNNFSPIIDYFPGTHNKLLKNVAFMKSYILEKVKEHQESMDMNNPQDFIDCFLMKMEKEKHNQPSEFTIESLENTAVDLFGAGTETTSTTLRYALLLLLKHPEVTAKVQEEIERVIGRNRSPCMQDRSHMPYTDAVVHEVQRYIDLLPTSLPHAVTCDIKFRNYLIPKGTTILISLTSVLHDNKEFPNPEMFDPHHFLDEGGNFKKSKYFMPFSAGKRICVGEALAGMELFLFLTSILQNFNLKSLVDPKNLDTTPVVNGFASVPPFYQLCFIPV
T5 sequence (P08684 whole entry): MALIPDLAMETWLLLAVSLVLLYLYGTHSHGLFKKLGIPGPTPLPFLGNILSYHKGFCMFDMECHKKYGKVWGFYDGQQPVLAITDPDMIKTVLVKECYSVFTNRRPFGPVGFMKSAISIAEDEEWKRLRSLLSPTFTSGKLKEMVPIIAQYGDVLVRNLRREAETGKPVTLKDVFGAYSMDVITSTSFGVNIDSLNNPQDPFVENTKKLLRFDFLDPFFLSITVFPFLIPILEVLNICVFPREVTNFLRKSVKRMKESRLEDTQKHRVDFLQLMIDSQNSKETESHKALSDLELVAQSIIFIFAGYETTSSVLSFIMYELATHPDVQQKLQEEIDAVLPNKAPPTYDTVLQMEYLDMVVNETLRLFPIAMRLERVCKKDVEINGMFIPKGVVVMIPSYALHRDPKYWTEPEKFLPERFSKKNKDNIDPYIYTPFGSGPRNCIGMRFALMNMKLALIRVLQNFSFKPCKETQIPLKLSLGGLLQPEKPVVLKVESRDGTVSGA
T1 sequence (P20813 whole entry): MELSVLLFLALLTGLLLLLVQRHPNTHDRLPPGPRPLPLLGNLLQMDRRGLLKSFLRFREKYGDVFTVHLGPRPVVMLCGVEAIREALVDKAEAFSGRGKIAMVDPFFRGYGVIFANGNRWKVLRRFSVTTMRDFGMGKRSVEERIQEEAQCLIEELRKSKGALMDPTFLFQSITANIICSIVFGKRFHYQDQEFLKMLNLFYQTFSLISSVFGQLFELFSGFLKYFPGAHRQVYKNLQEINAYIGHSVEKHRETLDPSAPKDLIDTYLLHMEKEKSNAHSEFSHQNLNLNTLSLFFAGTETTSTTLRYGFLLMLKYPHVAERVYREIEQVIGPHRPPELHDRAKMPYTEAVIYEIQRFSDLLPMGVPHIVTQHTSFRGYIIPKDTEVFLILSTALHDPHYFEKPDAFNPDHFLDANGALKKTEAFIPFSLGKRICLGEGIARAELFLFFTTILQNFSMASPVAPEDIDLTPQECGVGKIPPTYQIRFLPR

In general, pIC50 refers to −log10 of the IC50, conventionally taken in molar units. In the case of `CCCCc1cn(-c2ccc(-c3nnc(-c4ccccc4C(F)(F)F)o3)cc2)nn1` [Compound 5], the “% Remaining ± SD” value came to 100.0 ± 1.8% in “Plasma stability” (0 minutes); 117.2 ± 8.6% in “Plasma stability” (10 minutes); 111.1 ± 0.3% in the data set “Plasma stability” (30 minutes); 108.2 ± 4.8% in the data set “Plasma stability” (60 minutes); 123.2 ± 26.5% in “Plasma stability” (120 minutes). Moreover, the pIC50 at CYP2B6, on CYP2C9, against CYP1A2, against CYP2D6 and against CYP3A4 was < 4.52 throughout. Besides, the figures for the Kidney to plasma in data set [1] (4 hours after single administration I.P. 45 mg/Kg), in data set [1] (8 hours after single administration I.P. 45 mg/Kg) and in data set [1] (24 hours after single administration I.P. 45 mg/Kg) were 11.5, 9.2 and 9.3, respectively.
